Where two headings read alike, the source gives them in different places.
Legend:
[1] = molecular target: T1, HSF-PLA2 (extracellular PLA2 obtained from human synovial fluid) (Homo sapiens, UniProt P14555); assay: Assay for inhibition of HSF-PLA2 in vitro; assay type: biochemical; conditions: 5.8 μM test compound; read-out: % Inhib of HSF-PLA2
T1 construct: extracellular enzyme obtained from human synovial fluid; from tissue; host or cells: human synovial fluid (pooled)
T1 sequence (P14555 21-144): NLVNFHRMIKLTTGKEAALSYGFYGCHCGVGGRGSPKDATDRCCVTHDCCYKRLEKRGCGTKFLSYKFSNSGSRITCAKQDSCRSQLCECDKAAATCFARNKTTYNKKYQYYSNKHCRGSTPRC
Method: Assay for Inhibition of HSF-PLA2 In Vitro
The PLA2 used in this test is the extracellular enzyme obtained from human synovial fluid (HSF-PLA2).
The assay for HSF-PLA2 activity was a modification of the described method [Franson R., Dobrow R., Weiss, J., Elsbach P., and Weglick W. B., J. Lipid Res., 19, 18-23 (1978)] which was conducted using [1-^14 C]-oleate-labelled E. coli substrate in excess at a final concentration of 20,000 dpm/ml. This was equivalent to 18.2 mM of cell membrane phospholipid phosphorus and 2×10^9 autoclaved E. coli/ml. The optimal conditions which were developed for the assay of HSF-PLA2 inhibitors are summarized as follows. A total volume of 0.5 ml of reaction mixture typically had the following final composition: substrate (20,000 dpm/ml); enzyme (0.1% HSF, v/v); 2 mM CaCl2; 150 mM Na^+; 50 mM sodium HEPES buffer, pH 7.3; and 1% dimethyl sulfoxide (DMSO, used to solubilize test inhibitors) in the presence or absence of inhibitor. The reaction was initiated by the addition of HSF-PLA2 and duplicate samples of the mixture were incubated in 13×100 mm glass tubes with shaking for 30 minutes at 37° C. The reaction was terminated by the addition of 2.5 ml of chloroform-methanol (1 to 1.5, v/v). The extraction of lipids from the stopped reaction mixture was conducted by the further additions of 0.5 ml of chloroform and 1 ml of water with mixing. After centrifuging, the lower chloroform phase was transferred to smaller glass tubes and the solvent was evaporated to dryness with a nitrogen stream. The extracted lipid residue was redissolved in […] of a solution containing carrier oleic acid (0.2 mg/ml) in chloroform-methanol [9 to 1, v/v]). The whole lipid extract was applied to a preactivated (30 minutes at 110° C.) silica gel-impregnated glass fiber thin layer chromatography sheet (ITLC type SG sheet from Gelman Sciences Inc., Ann Arbor, Mich.) using hexane-acetic acid (100 to 1, v/v) as the developing solvent. This TLC system rapidly (6 minutes) resolved the enzymatically released product, ^14 C-oleic acid, from the unreacted ^14 C-phospholipid substrate. The unsaturated lipids were located on the chromatogram by a brief exposure to iodine vapor. The oleic acid zone (Rf value 0.95) and phospholipid zone (origin) were cut out, chopped into small pieces, shaken with 2 ml of ethanol-water (80 to 20, v/v) and 15 ml of Aquasol and counted for radio-activity. A control incubation of substrate in the absence of HSF-PLA2 was performed in each experiment. The PLA2 activity of the human synovial fluid was corrected for this small control value. […] The specific activity of PLA2 in the pooled human synovial fluid under the optimal assay conditions was 49.2 nmoles [1-^14 C]-oleic aid released hour^-1 mg^-1. The IC50 (μM concentration of test compound that produces 50% inhibition of PLA2 activity) was determined for each test compound.

[2] = test system: croton oil-induced mouse ear edema; assay: Croton oil mouse ear edema test; assay type: in vivo, male CD-1 mice; conditions: 1 mg topical, coapplied with croton oil; ear punch weight at 6 hours
Method: Croton Oil Mouse Ear Edema Test
The croton oil-induced mouse ear edema test, a model of irritant-induced contact dermatitis, has been used for evaluation of the PLA2 inhibitors by the topical route of administration. This test was carried out as described in the following references: […]
Twenty five μl of a 1% croton oil solution [dissolved in a mixture of pyridine/water/diethyl ether at a ratio of 5/20/75 (croton oil vehicle)] are applied to the outer side of the right ear of 3-4 week old male CD-1 mice (8 animals per group). The test compounds are dissolved directly in the 1% croton oil solution at various concentrations and coapplied. Control animals receive 25 μl of croton oil vehicle on the right ear. Biopsy punches are removed at 6 hours from the right ear of the animals using a 6 mm skin trephine (Roboz, Washington, D.C.) and the wet weight of the ear punches is determined. The weight of the biopsy punches is a measure of ear inflammation, primarily edema. The data are expressed as percent inhibition relative to control groups.
Statistical analysis of the mean edema values of the control versus the treated groups is performed using Student's t-test. The significance of changes from mean value for vehicle-treated animals is as follows (*p<0.05, **p<0.01, ***p<0.005, ns/not significant).

[3] = test system: carrageenan-induced paw edema; assay: Rat carrageenan paw edema; assay type: in vivo, Lewis rats; conditions: 30 mg/kg ip, 1 hr prior to carrageenan
Method: Rat Carrageenan Paw Edema
Representative compounds of the invention were tested in rat carrageenan-induced paw edema to determine their ability to inhibit this acute inflammatory response. Test compounds were administered intraperitoneally or orally to groups of seven Lewis rats (~200 gm) 1 hr prior to carrageenan administration. The test compounds were dissolved in dimethyl sulfoxide for intraperitoneal administration and dissolved or suspended in Labrafil […] for oral administration. At 0 hour, 0.1 mL of 1% carrageenan dissolved in pyrogen free […] was injected subplanetary into the right hind paw to elicit the inflammatory response. The volume (in mL) of the right hind paw was measured by immersion of the paw to the level of the lateral malleolus in an aqueous plethysmometer immediately prior to the injection of carrageenan and then at 1, 2 and 4 hr after carrageenan injection. The paw edema was calculated by subtracting the zero time reading from the readings taken after injection. The percent change of the edema volume from the vehicle treated control was calculated to determine the activity of the test compound. Statistical analysis of the mean paw edema values of the control versus the treated groups was performed using Student's t-test.

[4] = test system: acetic acid-induced colitis (colonic mucosa myeloperoxidase); assay: Acetic acid-induced colitis in rats; assay type: in vivo, male rats (Sprague-Dawley); conditions: 10 mg/kg po
From the text: Acetic Acid-Induced Colitis in Rats
The rat acetic acid-induced colitis bioassay has been described by J. E. Krawisz, et al. in Amer. J. Proc. Gastro. Col. Rec. Surg. 31, 11-18 (1980), and by P. Sharon and W. F. Stenson in Gastroenterology 88, 55-63 (1985) and 86, 453-460 (1984). Acetic acid-induced colitis is characterized by the movement of inflammatory cells into the colon, with the number of such cells in the mucosa being measured by the activity of myeloperoxidase, a marker enzyme for these cells. Positive desirable activity is indicated by a reduction in the high levels of myeloperoxidase caused by acetic acid. Male rats (Sprague-Dawley), weighing 150 to 300 g, were pretreated twice daily for two days with either the vehicle (water or dimethylsulfoxide) or the test inhibitor compound suspended in water or dissolved in dimethylsulfoxide and orally administered. […] The colonic mucosa was surgically removed and homogenized in an aqueous buffer at pH 6 with a Tissumizer or similar device and myeloperoxidase was measured in the homogenate using o-phenyl enediamine as a chromagen, as described by A. Voller, D. E. Bidwell and A. Bartlett in "The Enzyme Linked Immunosorbent Assay (ELISA)", Zoological Soc., London, 1979, pages 29-30. […]

[5] = test system: adjuvant arthritis induced by Freunds complete adjuvant
Method: Representative compounds of the invention were tested in the standard adjuvant arthritis model in rats, induced by Freunds complete adjuvant, as described by C.

Compound	inhibition at 5.8 µM [1] [%]	% Inhib of Croton Oil Mouse Ear Edema (1 mg) [2] [%]	% Inhib of Carrageenan Paw Edema 2 hr 30 mg/kg ip [3] [%]	% Inhib of Myeloperoxidase Accumulation [4] [%]	Change in Paw Volume in ml, Treated ([5]; dose 10 mg/kp ip) [mL]	Change in Paw Volume in ml, Treated ([5]; dose 30 mg/kp ip) [mL]
CCCCCCCCCCCCCCCCCCOc1cccc(C(=O)N(CC(=O)O)CC(=O)O)c1 [Example 4, N-(Carboxymethyl)-N-[3-(octadecyloxy)benzoyl]glycine]	50	17	50	112 ± 53	-0.14 ± 0.06	–
CCCCCCCCCCCCCCCCCCOc1ccc(O)c(C(=O)N(CC(=O)O)CC(=O)O)c1 [Example 62, N-(carboxymethyl)-N-[2-hydroxy-5-(octadecyloxy)benzoyl]glycine]	50	65	57	–	–	-0.11 ± 0.06

From patent US5298652A, “N-substituted glycines, inhibitors of phospholipase A2” (Hoffmann-La Roche Inc., priority 1992, dated 1994)
